# Earlier results, collected in US11975079B2, “Truncated Evans Blue modified fibroblast activation protein inhibitor, preparation method and application thereof” (YANTAI LANNACHENG BIOTECHNOLOGY CO., LTD., priority 2021, dated 2024).
smiles,measurement,setting,value
N#C[C@@H]1CCCN1C(=O)CNC(=O)c1ccnc2ccc(OCCCN3CCN(C(=O)CN4CCN(CC(=O)O)CCN(CC(=O)O)CCN(CC(=O)O)CC4)CC3)cc12 [FAPI-02],decrease of retained dose at tumor site,24 hours later,about 75%
same,clearance in blood circulation,according to current reports,completely cleared in blood circulation within one hour
